These molecules were tested on Lysozyme (assay: Test for the inhibitory activity on the formation of AGE (lysozyme dimer formation, SDS gel electrophoresis, densitometry)). Details: AGE-inhibitory action, lysozyme 20 mg/ml, pH 7.4, 200 mmol/l glucose or xylose, 24 to 120 hours.
Format: biochemical
Description: Test for the inhibitory activity on the formation of AGE
Lysozyme is dissolved at a final concentration of 20 mg/ml in 100 mmol/l potassium phosphate buffer, pH 7.4. 5 mmol/l sodium azide is added as a preservative. The formation of AGE is initiated by the addition of 200 mmol/l glucose or xylose. Test substances or the reference substance aminoguanidine are added at different concentrations in order to quantify an inhibitory activity on AGE formation. Solvent controls as well as control mixes are also run in the presence of 200 mmol/l sorbitol or xylite for correction purposes. The incubation period of the reaction mixtures is between 24 and 120 hours depending on the sugar used and is selected in such a way that mainly dimers are formed and other higher molecular oligomerization products are formed only to a slight extent.
The samples are prepared and SDS gel electrophoresis is carried out according to literature references. Summarized briefly the samples are diluted with the 4-fold amount of sample buffer (50 mmol/l Tris^* acetate, pH 7.5, 1% SDS, 5 mmol/l dithiothreitol) and heated for 3 minutes to 95° C. Aliquots are applied to 8-18% gradient-SDS gels. In order to determine the molecular weight molecular weight markers are also used in the range 14-340 kD. The separation according to molecular weight is achieved under the following operating conditions: voltage: 600 V, current intensity: 50 mA, power: 30 W, run period: ~60 minutes.
After the gel electrophoresis the gels are fixed according to standard methods and stained with Coomassie Blue. After destaining overnight and drying, the gels are measured densitometrically (Pharmacia Ultra Scan XL using GelScan XL software).
In order to determine the threshold concentration and the IC50 values of the AGE-inhibitory action of the test substances, the dimer formation is plotted semi-logarithmically against the test concentration of the substance and the above-mentioned parameters are calculated.

IC50	SMILES	Threshold concentration
4 µM	O=c1oc(/C=C/c2ccc(O)c(O)c2)cc(O)c1C(c1ccc(Cl)cc1)c1c(O)cc(/C=C/c2ccc(O)c(O)c2)oc1=O [Example 1, 3,3'-(4-Chlorobenzylidene)bis[6-[2-(3,4-dihydroxyphenyl)vinyl]-4-hydroxy-2H-pyran-2-one]]	> 1 µmol/L
2 µM	COc1ccc(C(c2c(O)cc(/C=C/c3ccc(O)c(O)c3)oc2=O)c2c(O)cc(/C=C/c3ccc(O)c(O)c3)oc2=O)cc1O [Example 3, 3,3'-(3-Hydroxy-4-methoxybenzylidene)bis[6-[2-(3,4-dihydroxyphenyl)vinyl]-4-hydroxy-2H-pyran-2-one]]	> 1 µmol/L
2 µM	CC(C)(C)c1cc(C(c2c(O)cc(/C=C/c3ccc(O)c(O)c3)oc2=O)c2c(O)cc(/C=C/c3ccc(O)c(O)c3)oc2=O)cc(C(C)(C)C)c1O [Example 4, 3,3'-(4-Hydroxy-3,5-(bis-1,1-dimethylethyl)benzylidene]bis[6-[2-(3,4-dihydroxyphenyl)vinyl]-4-hydroxy-2H-pyran-2-one]]	> 1 µmol/L
2 µM	COc1ccc(C(c2c(O)cc(/C=C/c3ccc(O)c(O)c3)oc2=O)c2c(O)cc(/C=C/c3ccc(O)c(O)c3)oc2=O)cc1 [Example 5]	> 1 µmol/L
5 µM	COc1ccc(C(c2c(O)cc(/C=C/c3ccc(O)c(O)c3)oc2=O)c2c(O)cc(/C=C/c3ccc(O)c(O)c3)oc2=O)cc1OC [Example 6]	> 1 µmol/L
4 µM	O=c1oc(/C=C/c2ccc(O)c(O)c2)cc(O)c1C(c1ccc(O)c(O)c1)c1c(O)cc(/C=C/c2ccc(O)c(O)c2)oc1=O [Example 7]	2 µmol/L
22 µM	N#Cc1ccc(C(c2c(O)cc(/C=C/c3ccc(O)c(O)c3)oc2=O)c2c(O)cc(/C=C/c3ccc(O)c(O)c3)oc2=O)cc1 [Example 8]	10 µmol/L

SMILES	IC50	Threshold concentration
N=C(N)NN [aminoguanidine, reference compound]	4500 µM	500 µmol/L

Source: US5731344A, “Bishispidine compounds, processes for their production and pharmaceutical agents containing these compounds” (Boehringer Mannheim GmbH, priority 1993, dated 1998)
